Patent US9029078B2, “Perfusion and/or preservation solution for organs” (Philadelphia College of Osteopathic Medicine, priority 2005, dated 2015)
Where no end group is shown, it is not given here.

Columns and labels:
[1] = test system: isolated perfused rat hearts (I/R+PMNs); assay: Isolated perfused rat heart, 20 min ischemia / 45 min reperfusion with PMNs: cardiac contractile function (LVDP, +dP/dtmax, LVEDP); details: for +dP/dtmax recovered to, of initial baseline / LVDP recovered to, of initial baseline: 45 min post-reperfusion
Description: (§1) Data were recorded every 5 min for 45 min post-reperfusion. After each experiment, the left ventricle was isolated, fixed in 4% paraformaldehyde and stored at 4° C. for later histological analysis.

[2] = test system: PMN adherence to coronary vascular endothelium; assay: Histological assessment of intravascular PMNs adhering to the coronary vasculature; design: species or system rat; details: I/R+PMN hearts, 5 μM
Description: FIG. 4b. Histological assessment of intravascular PMNs that adhered to the coronary vasculature in isolated perfused rat heart samples taken from 3 rats per group
and 10 areas per heart. […] Hatched boxes represent non-PMN perfused hearts and black boxes represent PMN-perfused hearts. All values are mean numbers of PMNs/mm^2 of heart area± SEM.
PMN adherence to coronary vascular endothelium was also evaluated within the assessment of total intravascular and infiltrated PMNs. […] NO release from rat aortic endothelium was measured to determine if PKC ζ peptide inhibitor provides cardioprotection by a mechanism involving increased endothelial NO release. […] The eNOS inhibitor, L-NAME, was used as another control in order to decrease basal release of NO to zero.

[3] = test system: PMN infiltration into the myocardium of isolated perfused rat hearts; assay: Histological assessment of total intravascular and infiltrated PMNs in post-reperfusion cardiac tissue
Description: FIG. 4a. Histological assessment of total intravascular and infiltrated PMNs in isolated perfused rat heart samples taken from 3 rats per group and 10 areas per heart. […] Hatched boxes represent non-PMN perfused hearts and black boxes represent PMN-perfused hearts. **P<0.01, from I/R+PMNs.
as §1
The cardiac injury associated with I/R in this model was closely correlated with the substantial number of PMNs infiltrating the myocardium within the 45 min reperfusion period. During reperfusion, a significant number of PMNs transmigrated into the myocardium, increasing from less than 25 PMN/mm^2 in Sham I/R hearts to more than 180 PMN/mm^2 in I/R+PMN hearts at the end of the reperfusion period (FIG. 4a).

PMA-stimulated rat PMNs = assay: Superoxide release from PMA-stimulated rat PMNs; type: cell-based
Description: FIG. 6. Superoxide release from rat PMNs. Superoxide release was measured from 5×10^6 PMNs after phorbol-12-myristate-13-acetate (PMA) (15 nM) stimulation. Superoxide dismutase (SOD) (10 μg/ml) was employed as a positive control. The change in absorbance (Δ) was measured 360 sec after PMA addition (peak response). […] All values are means± SEM. Numbers at bottom of bars show the numbers of separate experiments per group.
FIG. 18. Superoxide release from rat PMNs. Superoxide release was measured from 5×10^6 PMNs after PMA (15 nM) stimulation. SOD (10 μg/ml) was employed as a positive control. The change in absorbance (Δ) was measured 360 sec after PMA addition (peak response). […] All values are means± SEM. Numbers at bottom of bars show the numbers of separate experiments per group.
FIG. 22. Superoxide release from rat PMNs. Superoxide release was measured from 5×10^6 PMNs after PMA (15 nM) stimulation. The change in absorbance (Δ) was measured 360 sec after PMA addition (peak response). […] All values are means± SEM. Numbers at bottom of bars show the numbers of separate experiments per group.

rat aortic endothelium = assay: Measurement of NO release from rat aortic segments
Description: FIG. 5. Measurement of NO release from rat aortic segments. […] All values are expressed as means± SEM. Numbers at bottom of bars are numbers of separate experiments per group. *p<0.05, **p<0.01, from basal values. FIG. 10. Measurement of NO release from rat aortic segments. […] All values are expressed as means± SEM. Numbers at bottom of bars are numbers of separate experiments per group. *p<0.05, **p<0.01, from basal values. FIG. 17. Measurement of NO release from rat aortic segments. […] All values are expressed as means± SEM. Numbers at bottom of bars are numbers of separate experiments per group. **p<0.01, from basal values. PMN adherence to coronary vascular endothelium was also evaluated within the assessment of total intravascular and infiltrated PMNs. […] NO release from rat aortic endothelium was measured to determine if PKC ζ peptide inhibitor provides cardioprotection by a mechanism involving increased endothelial NO release. […] The eNOS inhibitor, L-NAME, was used as another control in order to decrease basal release of NO to zero.

[4] = I/R+PMN hearts, 5 μM + L-NAME 50 μM

## PKC ζ peptide inhibitor: peptide inhibitor of protein kinase C zeta; preferred sequence SEQ ID NO: 2, preferably myristoylated; from Genemed Synthesis (SIYRRGARRWRKL; not fully specified; listed as Homo sapiens)
[1]; 5 μM, reperfusion 0 to 45 min
  LVDP of I/R+PMN group compared to treated I/R+PMN group (time course): significant and sustained reduction
[1]; I/R+PMN hearts, 1 μM
  +dP/dtmax recovered to, of initial baseline: 46±6%
  LVDP recovered to, of initial baseline: 57±10%
[1]; I/R+PMN hearts, 2.5 μM
  +dP/dtmax recovered to, of initial baseline: 75±5%
  LVDP recovered to, of initial baseline: 83±4%
[1]; [4]
  +dP/dtmax recovered to, of initial baseline: 54±9%
  LVDP recovered to, of initial baseline: 58±7%
[1]; I/R+PMN hearts, 5 μM
  +dP/dtmax recovered to, of initial baseline: 76±5%
  LVDP recovered to, of initial baseline: 84±4%
[1]; I/R+PMN hearts, LVDP and +dP/dtmax
  Lowest effective dose: 2.5 µM
[1]; I/R+PMN hearts, with L-NAME
  Protective effect on +dP/dt max in the presence of L-NAME (in words): blocked
  Protective effect on LVDP in the presence of L-NAME (in words): significantly blocked
[1]; final +dP/dt max after reperfusion, vs I/R+PMNs
  PMN-induced contractile dysfunction / decrease in +dP/dt max (in words): attenuated
[1]; final LVDP, 45 min post reperfusion, vs I/R+PMNs
  PMN-induced contractile dysfunction / decrease in LVDP (in words): attenuated
[2]
  Reduction in adherent PMNs to the coronary endothelium (not significant, p<0.06): 43±10%
[3]; 2.5 and 5 μM treated hearts
  Infiltrated PMNs compared to 1 μM treated hearts: significantly fewer infiltrated PMNs
[3]; I/R+PMN hearts
  Total intravascular and infiltrated PMNs vs I/R+PMNs (in words): significantly attenuated
[3]; I/R+PMN hearts, 1 μM
  Reduction in PMN infiltration into post-reperfused cardiac tissue: 20±6%
[3]; I/R+PMN hearts, 2.5 μM
  Reduction in PMN infiltration into post-reperfused cardiac tissue: 46±4%
[3]; I/R+PMN hearts, 5 μM
  Reduction in PMN infiltration into post-reperfused cardiac tissue: 48±3%
[3]; I/R+PMN hearts, with L-NAME
  Effect on PMN infiltration in the presence of L-NAME (in words): blocked
PMA-stimulated rat PMNs; 1 μM
  Superoxide release vs PMA-stimulated rat PMNs (in words): no difference
PMA-stimulated rat PMNs; 15 μM
  Inhibition of PMN superoxide release: 82%
PMA-stimulated rat PMNs; 2.5-15 μM, PMA 15 nM
  Inhibition of superoxide release: 33-82%
PMA-stimulated rat PMNs; 360 sec after PMA
  Superoxide release after PMA (15 nM) stimulation (in words): significantly inhibited
Rat aortic endothelium
  Endothelial NO release vs basal NO release (in words): significantly increased
Rat aortic endothelium; 1 μM
  NO release compared to basal NO release: not significantly different
Rat aortic endothelium; 2.5 μM
  Increase in NO release compared to basal NO release: 47±2%
Rat aortic endothelium; 5 μM
  Increase in NO release compared to basal NO release: 54±5%
Rat aortic endothelium; 5 μM, denuded segments
  NO release from endothelium removed (denuded) rat aortic segments: not different from L-NAME-treated segments
Rat aortic endothelium; 15 μM
  Increase in NO release compared to basal NO release: 91±15%
Rat aortic endothelium; L-NAME 400 μM
  Induced production of NO after treating the endothelium with L-NAME: completely inhibited
